{"source": "patent US12054485B2", "about": "“Substituted imidazoquinolines” (BIONTECH SE, priority 2017, dated 2024)", "origin": "cited, not measured here", "tested_on": "superficial basal cell carcinomas", "conditions": "5% cream (Aldara), topical; cited from earlier work", "data": [{"molecule": "CC(C)Cn1cnc2c(N)nc3ccccc3c21", "note": "[Imiquimod, imiquimod]", "values": [{"measurement": "5-year clearance of superficial basal cell carcinomas", "result": "approx. 80%"}]}]}
